Laboratory results as given in patent US12048709B2 (scPharmaceuticals Inc., priority 2019, dated 2024).
Where two headings read alike, the source gives them in different places.

What was measured:
[1] = for Apparent pH: 2% Benzyl Alcohol
Description: (§1) Samples were tumbled for 48 hours at ambient conditions and protected from light.

[2] = not given; remark: listed apart in the source
[3] = Study 4
Description: as §1
A full factorial DOE study was performed to determine the optimal amounts of NMP, benzyl alcohol and buffer (tromethamine) required to produce the highest solubility. Any potential synergistic effects stemming from various excipient combinations were also investigated.

[4] = 200 mM Sodium Phosphate, target pH 6.0, t24 h
[5] = 200 mM Tromethamine/HCl, target pH 8.5, t2 h

NS(=O)(=O)c1cc(C(=O)O)c(NCc2ccco2)cc1Cl [furosemide, 4-chloro-2-(furan-2-ylmethylamino)-5-sulfamoyl-benzoic acid]
Osmolarity (200 mM Citrate, target pH 6.0, t2 h): 516 mOsm/kg
Osmolarity (200 mM Citrate, target pH 6.0, t24 h): 533 mOsm/kg
Osmolarity (200 mM Citrate, target pH 6.0, t48 h): 557 mOsm/kg
Osmolarity (200 mM Citrate, target pH 7.4, t2 h): 488 mOsm/kg
Osmolarity (200 mM Citrate, target pH 7.4, t24 h): 484 mOsm/kg
Osmolarity (200 mM Citrate, target pH 7.4, t48 h): 549 mOsm/kg
Osmolarity (200 mM Histidine/HCl, target pH 6.0, t2 h): 441 mOsm/kg
Osmolarity (200 mM Histidine/HCl, target pH 6.0, t24 h): 392 mOsm/kg
Osmolarity (200 mM Histidine/HCl, target pH 6.0, t48 h): 477 mOsm/kg
Osmolarity (200 mM Histidine/HCl, target pH 7.4, t2 h): 588 mOsm/kg
Osmolarity (200 mM Histidine/HCl, target pH 7.4, t24 h): 584 mOsm/kg
Osmolarity (200 mM Histidine/HCl, target pH 7.4, t48 h): 616 mOsm/kg
Osmolarity (200 mM Histidine/HCl, target pH 8.5, t2 h): 553 mOsm/kg
Osmolarity (200 mM Histidine/HCl, target pH 8.5, t24 h): 558 mOsm/kg
Osmolarity (200 mM Histidine/HCl, target pH 8.5, t48 h): 678 mOsm/kg
Osmolarity (200 mM Potassium Phosphate, target pH 6.0, t2 h): 384 mOsm/kg
Osmolarity (200 mM Potassium Phosphate, target pH 6.0, t24 h): 383 mOsm/kg
Osmolarity (200 mM Potassium Phosphate, target pH 6.0, t48 h): 376 mOsm/kg
Osmolarity (200 mM Potassium Phosphate, target pH 7.4, t2 h): 462 mOsm/kg
Osmolarity (200 mM Potassium Phosphate, target pH 7.4, t24 h): 471 mOsm/kg
Osmolarity (200 mM Potassium Phosphate, target pH 7.4, t48 h): 481 mOsm/kg
Osmolarity (200 mM Potassium Phosphate, target pH 8.5, t2 h): 487 mOsm/kg
Osmolarity (200 mM Potassium Phosphate, target pH 8.5, t24 h): 497 mOsm/kg
Osmolarity (200 mM Potassium Phosphate, target pH 8.5, t48 h): 423 mOsm/kg
Osmolarity (200 mM Sodium Phosphate, target pH 6.0, t2 h): 388 mOsm/kg
Apparent pH [4]: 5.1
Osmolarity [4]: 399 mOsm/kg
Osmolarity (200 mM Sodium Phosphate, target pH 6.0, t48 h): 393 mOsm/kg
Osmolarity (200 mM Sodium Phosphate, target pH 7.4, t2 h): 330 mOsm/kg
Osmolarity (200 mM Sodium Phosphate, target pH 7.4, t24 h): 310 mOsm/kg
Osmolarity (200 mM Sodium Phosphate, target pH 7.4, t48 h): 310 mOsm/kg
Osmolarity (200 mM Sodium Phosphate, target pH 8.5, t2 h): 282 mOsm/kg
Osmolarity (200 mM Sodium Phosphate, target pH 8.5, t24 h): 267 mOsm/kg
Osmolarity (200 mM Sodium Phosphate, target pH 8.5, t48 h): 285 mOsm/kg
Osmolarity (200 mM Tromethamine, target pH 6.0, t2 h): 403 mOsm/kg
Osmolarity (200 mM Tromethamine, target pH 6.0, t24 h): 406 mOsm/kg
Osmolarity (200 mM Tromethamine, target pH 6.0, t48 h): 446 mOsm/kg
Osmolarity (200 mM Tromethamine, target pH 7.4, t2 h): 434 mOsm/kg
Osmolarity (200 mM Tromethamine, target pH 7.4, t24 h): 481 mOsm/kg
Osmolarity (200 mM Tromethamine, target pH 7.4, t48 h): 482 mOsm/kg
Osmolarity (200 mM Tromethamine, target pH 8.5, t2 h): 403 mOsm/kg
Osmolarity (200 mM Tromethamine, target pH 8.5, t24 h): 347 mOsm/kg
Osmolarity (200 mM Tromethamine, target pH 8.5, t48 h): 433 mOsm/kg
Osmolarity (200 mM Tromethamine/HCl, target pH 6.0, t2 h): 121 mOsm/kg
Osmolarity (200 mM Tromethamine/HCl, target pH 6.0, t24 h): 114 mOsm/kg
Osmolarity (200 mM Tromethamine/HCl, target pH 6.0, t48 h): 127 mOsm/kg
Osmolarity (200 mM Tromethamine/HCl, target pH 7.4, t2 h): 232 mOsm/kg
Osmolarity (200 mM Tromethamine/HCl, target pH 7.4, t24 h): 215 mOsm/kg
Osmolarity (200 mM Tromethamine/HCl, target pH 7.4, t48 h): 233 mOsm/kg
Apparent pH [5]: 8.8
Osmolarity [5]: 177 mOsm/kg
Osmolarity (200 mM Tromethamine/HCl, target pH 8.5, t24 h): 257 mOsm/kg
Osmolarity (200 mM Tromethamine/HCl, target pH 8.5, t48 h): 252 mOsm/kg
Apparent pH ([1]; 100 mM Tromethamine pH 5.0, 25% NMP, t2 h): 5.0
Apparent pH ([1]; 100 mM Tromethamine pH 5.0, 25% NMP, t24 h): 4.6
Apparent pH ([1]; 100 mM Tromethamine pH 5.0, 25% NMP, t48 h): 5.1
Apparent pH ([1]; 100 mM Tromethamine pH = 4.0, 25% NMP, t2 h): 3.9
Apparent pH ([1]; 100 mM Tromethamine pH = 4.0, 25% NMP, t24 h): 3.6
Apparent pH ([1]; 100 mM Tromethamine pH = 4.0, 25% NMP, t48 h): 4.7
pH variability ([1]; Study 6, pH 4.0 test samples): 0.7 units
Osmolarity ([2]; ~50 mM Potassium Phosphate, target pH 6.0, t2 h): 108 mOsm/Kg
Osmolarity ([2]; ~50 mM Potassium Phosphate, target pH 6.0, t24 h): 105 mOsm/Kg
Osmolarity ([2]; ~50 mM Potassium Phosphate, target pH 6.0, t48 h): 115 mOsm/Kg
Osmolarity ([2]; ~50 mM Potassium Phosphate, target pH 7.4, t2 h): 193 mOsm/Kg
Osmolarity ([2]; ~50 mM Potassium Phosphate, target pH 7.4, t24 h): 190 mOsm/Kg
Osmolarity ([2]; ~50 mM Potassium Phosphate, target pH 7.4, t48 h): 213 mOsm/Kg
Osmolarity ([2]; ~50 mM Potassium Phosphate, target pH 8.5, t2 h): 265 mOsm/Kg
Osmolarity ([2]; ~50 mM Potassium Phosphate, target pH 8.5, t24 h): 255 mOsm/Kg
Osmolarity ([2]; ~50 mM Potassium Phosphate, target pH 8.5, t48 h): 283 mOsm/Kg
Osmolarity ([2]; ~50 mM Sodium Phosphate, target pH 6.0, t2 h): 212 mOsm/Kg
Osmolarity ([2]; ~50 mM Sodium Phosphate, target pH 6.0, t24 h): 118 mOsm/Kg
Osmolarity ([2]; ~50 mM Sodium Phosphate, target pH 6.0, t48 h): 141 mOsm/Kg
Osmolarity ([2]; ~50 mM Sodium Phosphate, target pH 7.4, t2 h): 232 mOsm/Kg
Osmolarity ([2]; ~50 mM Sodium Phosphate, target pH 7.4, t24 h): 233 mOsm/Kg
Osmolarity ([2]; ~50 mM Sodium Phosphate, target pH 7.4, t48 h): 237 mOsm/Kg
Osmolarity ([2]; ~50 mM Sodium Phosphate, target pH 8.5, t2 h): 241 mOsm/Kg
Osmolarity ([2]; ~50 mM Sodium Phosphate, target pH 8.5, t24 h): 242 mOsm/Kg
Osmolarity ([2]; ~50 mM Sodium Phosphate, target pH 8.5, t48 h): 276 mOsm/Kg
Osmolarity ([2]; ~50 mM Tromethamine/HCl, target pH 6.0, t2 h): 124 mOsm/Kg
Osmolarity ([2]; ~50 mM Tromethamine/HCl, target pH 6.0, t24 h): 129 mOsm/Kg
Osmolarity ([2]; ~50 mM Tromethamine/HCl, target pH 6.0, t48 h): 133 mOsm/Kg
Osmolarity ([2]; ~50 mM Tromethamine/HCl, target pH 7.4, t2 h): 165 mOsm/Kg
Osmolarity ([2]; ~50 mM Tromethamine/HCl, target pH 7.4, t24 h): 181 mOsm/Kg
Osmolarity ([2]; ~50 mM Tromethamine/HCl, target pH 7.4, t48 h): 186 mOsm/Kg
Osmolarity ([2]; ~50 mM Tromethamine/HCl, target pH 8.5, t2 h): 242 mOsm/Kg
Osmolarity ([2]; ~50 mM Tromethamine/HCl, target pH 8.5, t24 h): 239 mOsm/Kg
Osmolarity ([2]; ~50 mM Tromethamine/HCl, target pH 8.5, t48 h): 258 mOsm/Kg
pH variability [3]: up to 0.3 pH units
